Assay results: article PMC11672299, “Conjugation of Polycationic Peptides Extends the Efficacy Spectrum of β‐Lactam Antibiotics” (Advanced Science, 2024)

Columns and labels:
HEPG2 cells = test: Cytotoxicity assay (PrestoBlue viability); format: cell-based, human; conditions: HEPG2, up to 512 µg mL^−1, 24 h
Description: (§1) To exclude any cytotoxic effects on mammalian cells prior to in vivo studies, the viability of the cell lines HEP‐G2 (hepatocellular carcinoma) and HEK‐293 (human […] embryonal kidney) after incubation with different concentrations of the β‐lactam–peptide conjugates were determined. For the viability assay, 10^4 cells per well were seeded in a 96‐well half area microplate and incubated overnight in a humidified 5% CO2 atmosphere at 37 °C. The next day, the conjugates were twofold serially diluted in PBS and added to the cells to obtain final concentrations ranging from 1–512 µg mL^−1. Cells were then incubated with the antibiotics in a humidified 5% CO2 atmosphere at 37 °C for a further 24 h. PrestoBlue HS Cell Viability Reagent was then added to the wells and the plates again were incubated in a humidified 5% CO2 atmosphere at 37 °C for 1 h. Afterwards, the absorption at 570 nm and 600 nm (reference) using an Infinite M200 PRO microplate reader (Tecan, Männedorf, Switzerland) was measured. Cell viability was calculated using the untreated control cells as a reference for 100% alive cells.

HEK‐293 cells = test: Cytotoxicity assay (PrestoBlue viability); format: cell-based, human; conditions: HEK‐293, up to 512 µg mL^−1, 24 h
Description: as §1

[1] = system: K. pneumoniae ATCC 700 603 (SHV‐18); test: microbe, parasite or virus in culture; format: cell-based; conditions: Klebsiella pneumoniae, 20 h; K. pneumoniae ATCC 700603 (SHV‐18); combinations: avibactam fixed 4 mg L^−1, clavulanic acid 2 mg L^−1; median (n = 3)
Method in brief: (§2)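 Twofold dilutions in cation-adjusted MHB II, inoculum 5 × 10^5 CFU mL^−1. Combination tests used clavulanic acid at 2 mg L^−1 or avibactam at 4 mg L^−1, fixed per EUCAST.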

[2] = system: A. baumannii SC300007 (Oxa23); test: microbe, parasite or virus in culture; format: cell-based; conditions: Acinetobacter baumannii, 20 h, combinations: avibactam fixed 4 mg L^−1, clavulanic acid 2 mg L^−1, median (n = 3)
Method in brief: as §2

[3] = system: S. aureus LAC* lux USA300 (MRSA); test: MIC by broth microdilution; format: cell-based; conditions: Staphylococcus aureus
Description: (§3) The minimum inhibitory concentration (MIC) of the β‐lactam–peptide conjugates was determined by broth microdilution as previously described.^[ [17] ^] Briefly, in cation‐adjusted MHB II medium, a twofold serial dilution of the compounds was prepared in 96‐well round‐bottom polystyrene or polypropylene microtiter plates with each well containing 50 µL. The plates were inoculated with 50 µL bacterial suspension and the final inoculum, in a total volume of 100 µL, contained 5 × 10^5 CFU mL^−1. The microplates were incubated for 20 h at 37 ± 1 °C. The lowest concentration preventing visible bacterial growth was considered the MIC value. For susceptibility testing of combinations of β‐lactamase‐inhibitors with either a β‐lactam antibiotic or a β‐lactam–peptide conjugate, fixed concentrations of the inhibitors according to the EUCAST (European Committee on Antimicrobial Susceptibility Testing) guidelines (clavulanic acid = 2 mg L^−1, avibactam = 4 mg L^−1) were used.

[4] = system: CTZ‐resistant C. freundii (n = 3); format: cell-based; conditions: 20 h
Description: as §3

[5] = Scintigraphy and biodistribution in rats; set-up: species or system Wistar rats; conditions: rat, in vivo, iv
Description: To enable radiolabeling of the β‐lactam–peptide conjugates, their peptide sequence was elongated by an N‐terminal D‐tyrosine. […] The solution was mixed with 5 MBq of iodine‐125 and radiolabeling was performed using the chloramine T method as previously described.^[ [35] ^] After 30 s, the reaction was quenched by the addition of a saturated methionine solution and the radiolabeled compound purified by reversed‐phase preparative radio‐HPLC (1100 series, Agilent Technologies, Santa Clara, CA, USA). Analysis was performed by analytical radio‐HPLC (1100 series, Agilent Technologies, Santa Clara, CA, USA) using a linear gradient from water (+ 0.1% TFA) to acetonitrile (+ 0.1% TFA) over 5 min at a flow rate of 2 mL min^−1.
All animal studies were approved by the Animal Care and Use committees from Regierungspräsidium Karlsruhe (Karlsruhe, Germany; reference number 35–9185.81/G‐199/21; date of approval: November 23, 2021). […]
The biodistribution of CTZ‐yR6 in Wistar rats was determined at 10 min and 3 h post injection. […] Using a Cobra γ‐counter (Packard Bioscience, Meriden, CT, USA), the amount of radioactivity in each sample was measured which was then used in combination with the organ weight and injected dose for the calculation of the […] per gram of tissue (%ID g^−1).

Gram‐positive bacteria = test: MIC compared with parent β‐lactam; format: cell-based
Description: as §3

[6] = system: Enterobacteriaceae (CTZ‐resistant); test: MIC compared with parent β‐lactam; format: cell-based
Description: as §3

E. faecalis (vanB) = test: MIC compared with parent β‐lactam; format: cell-based; conditions: on a molar level
Description: as §3

Gram‐negative bacteria = test: MIC compared with parent β‐lactam; format: cell-based
Description: as §3

A. bohemicus DSM 100419 = test: MIC by broth microdilution; format: cell-based; conditions: median (n = 3)
Description: as §3

[7] = system: VRE E. faecium UW 18 830 (vanA); test: Systemic infection VRE mouse model; format: in vivo, female Balb/c mice; conditions: VRE E. faecium UW18830 infected Balb/c mice, 30 mg kg^−1 day^−1 i.v., 48 h p.i., compared to CTZ or PBS
Source text: The animal infection studies were approved by the local government of Lower Franconia, Germany (approval number 55.2.2‐2532.2‐1283) and performed in strict accordance with the guidelines for animal care and experimentation of the German Animal Protection Law and the DIRECTIVE 2010/63/EU of the EU. The animals were housed in individually ventilated cages under standardized lighting conditions and had ad libitum access to food and water. To evaluate the in vivo activity during systemic infection, female Balb/c mice were infected with 5×10^7 CFU of VRE E. faecium UW 18 830 (vanA) by tail vein injection. Beginning at 1 h p.i., then repeatedly every 12 h, mice received intravenously either CTZ (30 mg kg body weight^−1 day^−1), CTZ‐R6 (30 mg kg body weight^−1 day^−1) or sterile PBS. The livers were recovered 48 h p.i. (12 h after the last treatment) and frozen at – 80 °C until further processing. For the determination of the bacterial burden, the livers were thawed, homogenized in PBS and plated in serial dilutions on brain heart infusion agar plates. CFU were counted after overnight incubation at 37 °C.

Structure (SMILES)	cytotoxicity (cell viability) (HEPG2 cells)	cytotoxicity (cell viability) (HEK‐293 cells)	MIC [1] [µg/mL]	MIC [2] [µg/mL]	MIC [3] [µg/mL]	MIC range [4] [µg/mL]	biodistribution (organ accumulation) [5]	increase in antimicrobial activity versus CTZ (factor) (Gram‐positive bacteria)	increase in antimicrobial activity versus CTZ [6]	increase in antimicrobial activity versus CTZ (E. faecalis (vanB)) [fold]	increase in antimicrobial activity versus CTZ (factor) (Gram‐negative bacteria)	antimicrobial activity (rank among CTZ–peptide conjugates) (A. bohemicus DSM 100419)	bacterial burden in the liver (CFU) [7]
CC(C)(O/N=C(\C(=O)N[C@@H]1C(=O)N2C(C(=O)[O-])=C(C[n+]3ccccc3)CS[C@H]12)c1csc(N)n1)C(=O)O [CTZ, ceftazidime, reference compound]	no significant cytotoxicity	no significant cytotoxicity	64	> 64	16	–	–	–	–	–	–	–	–
CC(C)(O/N=C(\C(=O)N[C@@H]1C(=O)N2C(C(=O)[O-])=C(C[n+]3ccccc3)CS[C@H]12)c1csc(N)n1)C(=O)NCCCCCCN1C(=O)CC(SC[C@H](NC(=O)[C@H](CCCNC(=N)N)NC(=O)[C@H](CCCNC(=N)N)NC(=O)[C@H](CCCNC(=N)N)NC(=O)[C@H](CCCNC(=N)N)NC(=O)[C@H](CCCNC(=N)N)NC(=O)[C@@H](N)CCCNC(=N)N)C(N)=O)C1=O (stereo partly shown) [CTZ-R6]	–	–	–	–	–	0.5 to 64	accumulated in the liver and in the kidneys	≈ 1000	ca. fourfold	~300	2–32	most potent conjugates	reduced the bacterial burden in the liver
